Earlier results on 2 compounds are cited in patent US6399592B1, “Bishphosphonate/estrogen synergistic therapy for treating and preventing bone loss” (Merck & Co., Inc., priority 1992, dated 2002).

The test system of series [1] is bone mineralization. The note with it: rats; long term.
The test system of series [2] is bone loss in ovaricetomized rats. As to conditions: in combination with estrogen.

Consider `CC(O)(P(=O)([O-])O)P(=O)([O-])O.[Na+].[Na+]` [etidronate, (1-hydroxyethylidene)bisphosphonic acid, disodium salt], for which, in series [1], the “effects on bone mineralization” value is recorded as “long term adverse effects on bone mineralization”.
As to `O=P([O-])(O)C(O)(Cc1cccnc1)P(=O)(O)O.[Na+]` [risendronate, sodium trihydrogen [1-hydroxy-2-(3-pyridinyl)ethylidene]bisphosphonate], the “effect on bone loss” value in series [2] is reported as “positive effect on bone loss”.
